HELM strings list units from the 5' end as sugar, base in round brackets, then linkage (d deoxyribose, r ribose, m 2'-O-methyl, p phosphodiester). Strings are as the collection lists them; they lack the last nucleoside at the 3' end of the tested compound. [moe] = 2'-O-(2-methoxyethyl) (MOE); [sp] = phosphorothioate linkage; [m5C] = 5-methylcytosine

In this data set the target is C9ORF72. The experiment in a line: mouse, dose not given. To be noted: ASO.
For “RNA1{[moe](G)[sp].[moe]([m5C])p.[moe]([m5C])p.d(T)[sp].d(T)[sp].d(A)[sp].d([m5C])[sp].d(T)[sp].d([m5C])[sp].d(T)[sp].d(A)[sp].d(G)[sp].d(G)[sp].[moe](A)p.[moe]([m5C])p.[moe]([m5C])p.[moe](A)p.[moe](A)[sp].[moe](G)}$$$$ (last 3' nucleoside missing)”, the 3 h FOB score was 2 score 0-7.

In the case of “RNA1{[moe]([m5C])[sp].[moe]([m5C])p.[moe](G)p.[moe](G)p.d([m5C])[sp].d([m5C])[sp].d([m5C])[sp].d([m5C])[sp].d(T)[sp].d(A)[sp].d(G)[sp].d([m5C])[sp].d(G)[sp].d([m5C])[sp].[moe](G)p.[moe]([m5C])p.[moe](G)p.[moe](A)[sp].[moe]([m5C])}$$$$ (last 3' nucleoside missing)”, the 3 h FOB score was 4.25 score 0-7.

With “RNA1{[moe]([m5C])[sp].[moe](T)p.[moe](G)p.[moe]([m5C])p.[moe](G)p.[moe](A)p.d(T)[sp].d([m5C])[sp].d([m5C])[sp].d([m5C])[sp].d([m5C])[sp].d(A)[sp].d(T)[sp].d(T)[sp].d([m5C])[sp].d([m5C])[sp].[moe](A)p.[moe](G)[sp].[moe](T)}$$$$ (last 3' nucleoside missing)”, the 3 h FOB score amounted to 0.25 score 0-7.

As to “RNA1{[moe](A)[sp].[moe](A)[sp].[moe](T)[sp].[moe]([m5C])[sp].[moe](T)[sp].d(T)[sp].d(T)[sp].d(A)[sp].d(T)[sp].d([m5C])[sp].d(A)[sp].d(G)[sp].d(G)[sp].d(T)[sp].d([m5C])[sp].[moe](T)[sp].[moe](T)[sp].[moe](T)[sp].[moe](T)}$$$$ (last 3' nucleoside missing)”, the 3 h FOB score amounted to 6.5 score 0-7.

“RNA1{[moe](A)[sp].[moe](G)p.[moe](G)p.[moe]([m5C])[sp].d(T)[sp].d(G)[sp].d([m5C])[sp].d(G)[sp].d(G)[sp].d(T)[sp].d(T)[sp].d(G)[sp].[moe](T)p.[moe](T)p.[moe](T)p.[moe]([m5C])[sp].[moe]([m5C])}$$$$ (last 3' nucleoside missing)” returned a 3 h FOB score of 7 score 0-7.

Turning to “RNA1{[moe]([m5C])[sp].[moe]([m5C])p.[moe]([m5C])p.[moe](T)p.[moe](A)p.[moe](G)[sp].d([m5C])[sp].d(G)[sp].d([m5C])[sp].d(G)[sp].d([m5C])[sp].d(G)[sp].d(A)[sp].d([m5C])[sp].[moe](T)p.[moe]([m5C])[sp].[moe]([m5C])}$$$$ (last 3' nucleoside missing)”, the 3 h FOB score is 3 score 0-7.

“RNA1{[moe]([m5C])[sp].[moe](T)p.[moe](G)p.[moe](G)p.d(T)[sp].d(T)[sp].d(A)[sp].d(A)[sp].d(T)[sp].d([m5C])[sp].d(T)[sp].d(T)[sp].d(T)[sp].d(A)[sp].[moe](T)p.[moe]([m5C])p.[moe](A)p.[moe](G)[sp].[moe](G)}$$$$ (last 3' nucleoside missing)” returned a 3 h FOB score of 0 score 0-7.

Take “RNA1{[moe]([m5C])[sp].[moe]([m5C])p.[moe]([m5C])p.[moe](T)p.d(A)[sp].d(G)[sp].d([m5C])[sp].d(G)[sp].d([m5C])[sp].d(G)[sp].d([m5C])[sp].d(G)[sp].d(A)[sp].d([m5C])[sp].[moe](T)p.[moe]([m5C])p.[moe]([m5C])p.[moe](T)[sp].[moe](G)}$$$$ (last 3' nucleoside missing)”: the 3 h FOB score came out at 1.75 score 0-7.

In the case of “RNA1{[moe](G)[sp].[moe]([m5C])p.[moe]([m5C])p.[moe](T)p.[moe](T)p.[moe](A)p.d([m5C])[sp].d(T)[sp].d([m5C])[sp].d(T)[sp].d(A)[sp].d(G)[sp].d(G)[sp].d(A)[sp].d([m5C])[sp].d([m5C])[sp].[moe](A)p.[moe](A)[sp].[moe](G)}$$$$ (last 3' nucleoside missing)”, the 3 h FOB score is 2.25 score 0-7.

As to “RNA1{[moe](G)[sp].[moe]([m5C])p.[moe]([m5C])p.[moe](T)p.d(T)[sp].d(A)[sp].d([m5C])[sp].d(T)[sp].d([m5C])[sp].d(T)[sp].d(A)[sp].d(G)[sp].d(G)[sp].d(A)[sp].[moe]([m5C])p.[moe]([m5C])p.[moe](A)p.[moe](A)[sp].[moe](G)}$$$$ (last 3' nucleoside missing)”, the 3 h FOB score came to 5.75 score 0-7.

With “RNA1{[moe]([m5C])[sp].[moe](G)p.[moe](G)p.[moe]([m5C])p.[moe]([m5C])p.[moe]([m5C])[sp].d([m5C])[sp].d(T)[sp].d(A)[sp].d(G)[sp].d([m5C])[sp].d(G)[sp].d([m5C])[sp].d(G)[sp].[moe]([m5C])p.[moe](G)[sp].[moe](A)}$$$$ (last 3' nucleoside missing)”, the 3 h FOB score was 4.5 score 0-7.

Regarding “RNA1{[moe](G)[sp].[moe]([m5C])p.[moe](T)p.[moe](G)[sp].d([m5C])[sp].d(G)[sp].d(G)[sp].d(T)[sp].d(T)[sp].d(G)[sp].d(T)[sp].d(T)[sp].[moe](T)p.[moe]([m5C])p.[moe]([m5C])p.[moe]([m5C])[sp].[moe](T)}$$$$ (last 3' nucleoside missing)”, the 3 h FOB score stood at 5 score 0-7.

Consider “RNA1{[moe](T)[sp].[moe]([m5C])p.[moe](T)p.[moe](G)p.[moe](T)p.[moe]([m5C])p.d(T)[sp].d(T)[sp].d(T)[sp].d(G)[sp].d(G)[sp].d(A)[sp].d(G)[sp].d([m5C])[sp].d([m5C])[sp].d([m5C])[sp].[moe](A)p.[moe](A)[sp].[moe](A)}$$$$ (last 3' nucleoside missing)”, for which the 3 h FOB score turned out to be 4.25 score 0-7.

Regarding “RNA1{[moe]([m5C])[sp].[moe](A)p.[moe](G)p.[moe](G)[sp].d([m5C])[sp].d(T)[sp].d(G)[sp].d([m5C])[sp].d(G)[sp].d(G)[sp].d(T)[sp].d(T)[sp].[moe](G)p.[moe](T)p.[moe](T)p.[moe](T)[sp].[moe]([m5C])}$$$$ (last 3' nucleoside missing)”, the 3 h FOB score was 3.5 score 0-7.

In the case of “RNA1{[moe](A)[sp].[moe](G)p.[moe](G)p.[moe]([m5C])p.d(T)[sp].d(G)[sp].d([m5C])[sp].d(G)[sp].d(G)[sp].d(T)[sp].d(T)[sp].d(G)[sp].d(T)[sp].[moe](T)p.[moe](T)p.[moe]([m5C])p.[moe]([m5C])[sp].[moe]([m5C])}$$$$ (last 3' nucleoside missing)”, the 3 h FOB score stood at 6.5 score 0-7.

Turning to “RNA1{[moe](G)[sp].[moe](G)p.[moe]([m5C])p.[moe]([m5C])p.[moe]([m5C])p.[moe]([m5C])p.d(T)[sp].d(A)[sp].d(G)[sp].d([m5C])[sp].d(G)[sp].d([m5C])[sp].d(G)[sp].d([m5C])[sp].d(G)[sp].d(A)[sp].[moe]([m5C])p.[moe](T)[sp].[moe]([m5C])}$$$$ (last 3' nucleoside missing)”, the 3 h FOB score is 1.25 score 0-7.

The substance “RNA1{[moe](A)[sp].[moe](G)p.[moe](G)p.[moe]([m5C])p.[moe](T)p.[moe](G)p.d([m5C])[sp].d(G)[sp].d(G)[sp].d(T)[sp].d(T)[sp].d(G)[sp].d(T)[sp].d(T)[sp].d(T)[sp].d([m5C])[sp].[moe]([m5C])p.[moe]([m5C])[sp].[moe](T)}$$$$ (last 3' nucleoside missing)” gave a 3 h FOB score of 4 score 0-7.

Turning to “RNA1{[moe](G)[sp].[moe](G)p.[moe]([m5C])p.[moe]([m5C])p.[moe]([m5C])p.[moe]([m5C])[sp].d(T)[sp].d(A)[sp].d(G)[sp].d([m5C])[sp].d(G)[sp].d([m5C])[sp].d(G)[sp].d([m5C])[sp].[moe](G)p.[moe](A)[sp].[moe]([m5C])}$$$$ (last 3' nucleoside missing)”, the 3 h FOB score stood at 3.25 score 0-7.
